We go through four compounds from article PMC12257510, “Structure-Guided Design of a KMT9 Inhibitor Prodrug with Cellular Activity” (Journal of Medicinal Chemistry, 2025).

One may read the Kd as the concentration at which binding is half-saturated. The ΔTm is the change in melting temperature against a reference sample. By IC50 is commonly meant the concentration that inhibits the measured activity by half.

Like-named read-outs stand apart in the source and are kept apart here.

For data set [1], the target named is T1, KMT9 (Homo sapiens, UniProt Q9Y5N5).
T1 sequence (Q9Y5N5 1-214): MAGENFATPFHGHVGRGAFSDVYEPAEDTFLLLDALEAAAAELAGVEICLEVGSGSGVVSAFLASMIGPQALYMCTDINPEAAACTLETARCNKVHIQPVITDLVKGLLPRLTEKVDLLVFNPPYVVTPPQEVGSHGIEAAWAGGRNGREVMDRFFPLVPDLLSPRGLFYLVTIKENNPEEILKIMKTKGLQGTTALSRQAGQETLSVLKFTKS
T1 sequence (Q9UI30 1-125 partner): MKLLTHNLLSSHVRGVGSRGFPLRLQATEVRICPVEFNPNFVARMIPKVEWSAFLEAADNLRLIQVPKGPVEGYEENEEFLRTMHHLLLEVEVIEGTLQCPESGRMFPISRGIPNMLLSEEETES
Description: Microscale thermophoresis (MST) binding assay. Conditions: for Kd: MST, binding to KMT9, read-out: Kd. As for the experimental part:
To determine the binding affinity of the compound and KMT9, microscale thermophoresis (MST) analysis was performed with a NanoTemper Monolith NT.115 instrument (NanoTemper Technologies GmbH). KMT9 was labeled with a RED-Tris-NTA labeling kit (NanoTemper Technologies GmbH) based on the manufacturer’s instructions. Buffer including 25 mM HEPES (pH 7.5), 100 mM NaCl, 1 mM DTT and 0.05% Tween was used for the reaction buffer. Varying concentrations of compounds were titrated against His-tag labeled KMT9 proteins (20 nM). Samples were loaded into standard Capillaries (NanoTemper Technologies GmbH) and MST measurements were performed using 40% MST power and 100% LED power. For each set of binding experiments, MST measurement was carried out with Binding Affinity module in MO. Control program under Nano-RED excitation. Data sets were processed with the MO.Affinity Analysis software (NanoTemper Technologies GmbH).

Data set [2] concerns panel of 27 SET domain-containing and 14 Rossmann-fold methyltransferases. Nature of the data set: Selectivity assay, radiometric methyltransferase panel. To be noted: IC50 panel, 3H-labeled SAM. Type of data set: biochemical. The protocol:
Selectivity profile of compound 6 was evaluated by testing the IC50 in a panel of methyltransferases. The IC50 of a panel of SET-domain containing and Rossmann-fold methyltransferases was assessed in a radiometric assay measuring substrate methylation using ^3H-labeled SAM by RBC Corp by compound 6. Data was process and plotted using KNIME Analytic Platform from KNIME AG.

The next data set deals with T2, KMT5A (Homo sapiens, UniProt Q9NQR1).
T2 sequence (Q9NQR1 1-393): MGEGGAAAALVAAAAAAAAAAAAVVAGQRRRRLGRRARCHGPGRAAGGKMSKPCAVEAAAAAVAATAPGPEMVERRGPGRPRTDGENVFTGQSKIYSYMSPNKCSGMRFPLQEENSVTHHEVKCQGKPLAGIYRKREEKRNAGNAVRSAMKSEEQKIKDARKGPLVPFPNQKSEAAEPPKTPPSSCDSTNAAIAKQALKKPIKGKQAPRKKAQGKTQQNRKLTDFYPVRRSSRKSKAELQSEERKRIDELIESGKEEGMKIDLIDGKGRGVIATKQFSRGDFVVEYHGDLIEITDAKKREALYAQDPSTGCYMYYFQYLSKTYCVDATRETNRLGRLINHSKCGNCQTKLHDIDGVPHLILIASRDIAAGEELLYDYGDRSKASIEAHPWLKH
Nature of the data set: CETSA in SW480 cell lysate, KMT5A (negative control). The data set is classed as binding. On the set-up: endogenous in cells; host or cells: SW480. Conditions: negative control protein. As for the experimental part: (§1) For whole cell CETSA, the cells were incubated with 10/15 μM of compound 7b/8/8-N for 18 h. Then, cells were washed with cell culture medium, detached from the surface using trypsin, washed with PBS and the number of cells was determined. Cell concentration was adjusted to 3.6 × 10^7 cells/mL using in PBS with Complete (w/o EDTA, Roche) protease inhibitor. Then, cells were frozen in liquid nitrogen and thawed at 25 °C three times, before being divided in 16 aliquots. Each aliquot was heated to a defined temperature between 40 and 70 °C in a PCR cycler (16 well gradient, 55 °C ± 15). After 3 min incubation, aliquots were snap frozen in liquid nitrogen and thawed at 25 °C. Cell lysates were then centrifuged at 20,000 × g , 4 °C for 20 min. Supernatant were mixed with 5× loading buffer, heated to 70 °C for 5 min and analyzed by Western blotting essentially as previously described. For the CETSA performed with cell lysates, cells were directly harvested and lysed as described above. […]
(§2) Figure S4. […] Representative Western blots (A) and quantification (B) showing no obvious shifting melting temperatures (ΔT m) of endogenous KMT5A upon treatment with compound 7b compared to DMSO. […]
(§3) Representative Western blots (C) and quantification (D) showing no shifting melting temperatures (ΔT m) of endogenous KMT5A upon treatment with compound 8 compared to DMSO. […]

The target in data set [3] is T1, KMT9. Description: Thermal shift assay (SyproOrange). Type of data set: binding. To be noted: thermal shift, 2 μM KMT9, 500 μM compound; read-out: ΔTm. The protocol:
The assay was carried out in 96-well Hard-Shell PCR plates (Bio-Rad Laboratories Inc.). […] Final assay concentrations were set to 500 μM of compound 8, 2 μM KMT9 and 5× SO. One μL of 20× compound, 4 μL of assay buffer, 10 μL of 2× KMT9 and 5 μL of 4× SO were pipetted. For the no-compound control, 20× inhibitor stock was replaced by DMSO. The final volume was 20 μL. The plate was spun down at 700 rpm for 1 min using a Hettich UNIVERSAL 320 centrifuge and incubated at 25 °C, shaking at 600 rpm. After incubation, the plate was spun down for 1 min at 700 rpm and measurement was conducted using a CFX96 Touch Real-Time PCR Detection System (Bio-Rad Laboratories Inc.). The plate was equilibrated at 20 °C for 4 min and then heated stepwise at a rate of 1 °C per 15 s until 95 °C. After every step, fluorescence was measured in FRET mode. Calculation of melting points was conducted by a Boltzman sigmoidal model using GraphPad Prism 7.0.

The target of data set [4] is T1, KMT9. Nature of the data set: KMT9 methyltransferase inhibition assay (3H-SAM, ETF1 substrate).
Description: The assay was carried out in 0.5 mL Eppendorf tubes in duplicates. Assay buffer consisted of 50 mM BTP, 1 mM MgCl2, 1 mM DTT and 0,01% Triton-X100 at a pH of 8.5 (adjusted using 1 M HCl and 1 M NaOH). 20X inhibitor stock (in DMSO), 2× enzyme stock and 4× substrate mix (both in assay buffer) were prepared. The substrate mix consisted of Tritium-labeled S-adenosylmethionine (3H-SAM), S-adenosylmethionine (SAM) and eukaryotic peptide chain release factor subunit1 (, residues 140–275) (ETF1). Final assay concentrations were set to 25 nM KMT9, 0.3 μM 3H-SAM, 0.7 μM SAM and 5 μM ETF1. […] Five μL of 4× substrate mix was added to initiate the reaction. The final reaction volume was 20 μL. For the positive control, the compound was replaced by DMSO; for the negative control, the compound was replaced by DMSO and KMT9 was replaced by assay buffer. The reaction mix was incubated in an Eppendorf thermomixer comfort at 30 °C for 2 h, shaking at 300 rpm. The reaction was quenched using 5 μL 50% trichloroacetic acid (TCA) and incubated at 25 °C for 5 min. Twenty-two μL of the mixture was transferred into 96-well MultiScreenHTS FB filter plates (Merck KGaA, Darmstadt, Germany) and washed four times with 10% TCA and two times with 100% ethanol. The plate was dried overnight, the filters were transferred into individual 6 mL Pony Vials (PerkinElmer Inc., Waltham, MA, USA) and incubated in 3 mL of Ultima Gold scintillation cocktail (PerkinElmer Inc., Waltham, MA, USA) for 30 min. The scintillation signal was measured for 3× 1 min using TriCarb 2910 TR (PerkinElmer) scintillation counter in 3H CPM mode (LL: 0, UL: 18.6).
Inhibition was calculated using the following formula: Inhibition[%]=(1−xc−xpos/xpos−xneg)×100
With xc: signal of compound, xpos: mean signal of positive control, xneg: mean signal of negative control. Data fitting was carried out by GraphPad 7.0 using nonlinear fit ([Inhibitor] vs response – variable slope (four parameters)).
Data set [5] addresses T3, endogenous KMT9a (Homo sapiens, UniProt Q9Y5N5).
T3 construct: increased thermal stability of endogenous KMT9 in SW480 cell lysates; endogenous in cells; host or cells: SW480
T3 sequence (Q9Y5N5 1-214): T1 sequence (Q9Y5N5 1-214)
T3 sequence (Q9UI30 1-125 partner): T1 sequence (Q9UI30 1-125 partner)
Description: CETSA in SW480 cell lysate, KMT9. To be noted: 2 h, vs DMSO. Type of data set: binding. As for the experimental part: (§4) For whole cell CETSA, the cells were incubated with 10/15 μM of compound 7b/8/8-N for 18 h. Then, cells were washed with cell culture medium, detached from the surface using trypsin, washed with PBS and the number of cells was determined. Cell concentration was adjusted to 3.6 × 10^7 cells/mL using in PBS with Complete (w/o EDTA, Roche) protease inhibitor. Then, cells were frozen in liquid nitrogen and thawed at 25 °C three times, before being divided in 16 aliquots. Each aliquot was heated to a defined temperature between 40 and 70 °C in a PCR cycler (16 well gradient, 55 °C ± 15). After 3 min incubation, aliquots were snap frozen in liquid nitrogen and thawed at 25 °C. Cell lysates were then centrifuged at 20,000 × g , 4 °C for 20 min. Supernatant were mixed with 5× loading buffer, heated to 70 °C for 5 min and analyzed by Western blotting essentially as previously described. For the CETSA performed with cell lysates, cells were directly harvested and lysed as described above. The lysates were then split and incubated either with DMSO or 10 μM compound 7b for 2 h. Then, lysates were aliquoted again into 16 samples each and treated as described for the whole cell CETSA.

In data set [6] the target is T3, endogenous KMT9a. Description: CETSA in intact SW480 cells, KMT9. The data set is classed as cell-based. To be noted: 18 h, vs DMSO. As for the experimental part: as §4
A further data set concerns Caco-2 cells. Nature of the data set: Cell proliferation assay (X-Celligence), Caco-2. Type of data set: cell-based. Conditions: Xcelligence, vs DMSO. The protocol: Cell proliferation was determined using the X-Celligence RTCA system (Roche). For real-time recording of SW480, Caco-2 cell proliferation, 5000 cells/well were seeded in 16 well E-plates (Roche). […] Cell indices were automatically recorded every 15 min. Relative velocities represent the change of the cell index over time. The sequences of the siRNAs (Stealth RNAi siRNAs; Life Technologies) used in the experiments have been previously described.

The target of the next data set is T4, KMT9a (Homo sapiens, UniProt Q9Y5N5).
T4 sequence (Q9Y5N5 1-214): T1 sequence (Q9Y5N5 1-214)
T4 sequence (Q9UI30 1-125 partner): T1 sequence (Q9UI30 1-125 partner)
Nature of the data set: CETSA in Caco-2 cells, KMT9. The data set is classed as cell-based. The arrangement: of endogenous KMT9 upon treatment with; endogenous in cells; host or cells: Caco-2. Conditions: 15 μM. The protocol: as §1, §2, §3

For data set [7], the system named is H4K12me1 levels in PC-3 M prostate tumor cells. Description: Western blot of cellular H4K12me1 levels. The data set is classed as cell-based. To be noted: PC-3 M cells, 10 μM, 3 days. The protocol:
7 Cellular activity of prodrug compound 8. (A) Levels of H4K12me1 in PC-3 M prostate tumor cells cultured in the presence of DMSO (−), 10 μM compound 8 or compound 8-N for 3 days were analyzed by Western blot using the indicated antibodies. Histone H4 was used as control. (B, C) Proliferation of Caco-2 cells treated with DMSO (Ctrl), compound 8, or compound 8-N were measured by Xcelligence. Data represent means ± s.d (n = 3). (D) Proliferation of HepG2 cells upon treatment of DMSO (Ctrl) and compound 8.
Experiments were performed as previously described. Histones used for Western blot analysis were extracted from cells as following: Cells were harvested, washed with PBS, resuspended in Triton Extraction Buffer (TEB; PBS, Triton ×100, 2 mM PMSF, 0.02% NaN3), stored 10 min on ice, centrifuged, and supernatant was discarded. After washing cells, a second time with TEB, pellets were resuspended in 0.2 N HCl and histones were acid-extracted overnight at 4 °C. Upon centrifugation for 10 min at 2000 rpm, supernatant was collected and protein concentration was determined. Three days before harvesting, cells were transfected with siRNA as indicated. The following antibodies were used: anti-KMT9α (#27630, lot 20062017, Schüle Lab), antihistone H4 (#ab10158, lot GR322677–1, Abcam), anti-H4K12me1 (#27429, lot 27062017, Schüle Lab).
(Immunoblotting shows a protein as a band on a membrane.)

Data set [8] concerns the target T1, KMT9. On the set-up: method as in previous study. To be noted: compound 2d taken as a reference from the previous study; ref previous study; cited from earlier work.
Data set [9] addresses T1, KMT9. The arrangement: method as in previous study. Conditions: compound 2d taken as a reference from the previous study; ref previous study; cited from earlier work. This is another data set of the same source.
Data set [10] addresses T1, KMT9. The arrangement: method as in previous study. To be noted: compound 2d taken as a reference from the previous study; ref previous study; cited from earlier work. This is another data set of the same source.

For the compound `CNc1ncnc2c1ccn2[C@@H]1C[C@H](CN(CCCNCCc2ccccc2)CC[C@H](N)C(=O)O)[C@@H](O)[C@H]1O` [compound 6, (S)-2-Amino-4-((((1R,2R,3S,4R)-2,3-dihydroxy-4-(4-(methylamino)-7H-pyrrolo[2,3-d]pyrimidin-7-yl)cyclopentyl)methyl)(3-(phenethylamino)propyl)amino)butanoic acid], the Kd on KMT9 [1] (given in nM) was 30 nM. For the same compound, the “Selectivity against SET-domain containing and Rossmann-fold MTs” value in data set [2] is reported as “selective for KMT9 against other MTs”.

As for `CNc1ncnc2c1ccn2[C@@H]1C[C@H](CN(CCCNCCc2ccc(Oc3ccc(Cl)cc3)c(F)c2)CC[C@H](N)C(=O)O)[C@@H](O)[C@H]1O` [compound 7b, (s)-2-Amino-4-((3-((4-(4-chlorophenoxy)-3-fluorophenethyl)amino)propyl) (((1R,2R,3S,4R)-2,3-dihydroxy-4-(4-(methylamino)-7H-pyrrolo[2,3-d]pyrimidin-7-yl)cyclopentyl)methyl)amino)butanoic Acid], the ΔTm at 10 µM on KMT5A was 1.1 °C; at endogenous KMT9a [5], 10.9 °C; on endogenous KMT9a [6], 1.8 °C. The ΔTm at 500 µM at KMT9 [3] worked out at 19.7 °C. The midpoint of inhibition against KMT9 [4], the IC50, lay at 0.16 µM. For the same compound, the Kd is 12 nM at KMT9 [1] (given in nM) and 10 nM at KMT9 [1].

As to “Ethyl (S)-2-amino-4-((3-(4-(4-chlorophenoxy)-3-fluorophenethoxy)propyl) (((1R,2R,3S,4R)-2,3-dihydroxy-4-(4-(methylamino)-7H-pyrrolo[2,3-d]pyrimidin-7-yl)cyclopentyl)methyl)amino)butanoate [compound 8-N]”, the “Proliferation of Caco-2 cells” value in the data set with Caco-2 cells was “fails to do so”. The “ΔTm of KMT9 (CETSA)” value on KMT9a is 0.1 K. For the same compound, the “ΔTm of endogenous KMT9 (CETSA)” value on endogenous KMT9a [6] (10 μM) is on record as −0.6 K. Moreover, in data set [7], the “Levels of H4K12me1” value is reported as “no effect was observed”.

As for `NCCCN(CC[C@H](N)C(=O)O)C[C@H]1O[C@@H](n2cnc3c(N)ncnc32)[C@H](O)[C@@H]1O` [compound 2d, (S)-2-Amino-4-((((2R,3S,4R,5R)-5-(6-amino-9H-purin-9-yl)-3,4-dihydroxytetrahydrofuran-2-yl)methyl)(3-aminopropyl)amino)butanoic acid], the Kd at KMT9 [8] was 0.01 µM. On KMT9 [1] (Kd ratio vs compound 1), the “Increase of binding compared to compound 1” value is recorded as “about 1000 fold”. Also, the ΔTm entry on KMT9 [9] was “ΔTm= 18.12 K”. The IC50 at KMT9 [10] is 0.029 µM.
